Assays:
[1] = system: CFU-GM progenitor cells in peripheral blood; assay: Peripheral blood progenitor cell (PBSC) mobilization, CFU-GM assay of PBMC; type: in vivo; conditions: BALB/c mice, mean (X)
Protocol: Experimental procedures are as previously described (Pelus, L. M., et al., Blood (2001) 97:1534-1542; Blood (2004) 103:110-119). […] Mobilization experiments were performed in BALB/c mice (3 mice group). For mobilization with AMD3100 or GROβ alone, PBSC mobilization was quantified at the peak of mobilization determined for either agent in previous experiments. Thus, PBSC mobilization was quantified at 15 mins following an s.c. injection of 2.5 mg/kg GROβ and at 1 hour following an s.c. injection of 5 mg/kg AMD3100. In the combination experiment, PBSC mobilization was quantitated at 5, 15, 30, 60 and 150 minutes after a single subcutaneous injection of 2.5 mg/kg GROβ (R & D Systems) in saline and 5 mg/kg AMD3100. The compounds were injected separately and simultaneously at different s.c. sites. Injections were scheduled so that control and mobilized mice were evaluated at the same time in every experiment. Mice were killed by CO2 asphyxiation and blood was obtained by cardiac puncture using syringes coated with EDTA (ethylenediaminetetra acetic acid). PBMC's were obtained by separation of peripheral blood (0.4 mL) on Lympholyte-M (Cedarlane Labs, Hornby, ON, Canada). Complete blood counts (CBC's) were performed on a Hemavet Mascot (CDC Technologies, Oxford, Conn.). Manual differentials were performed on Wright-Giemsa-stained (Hema-Tek 1000, Bayer, Elkhart, Ind.) blood smears or spleen and bone marrow cell cytospin preparations (Shandon, Pittsburgh, Pa.). CFU-GM Assay PBMC's were assayed for CFU-GM in McCoy 5A media with 15% heat-inactivated fetal bovine serum (Hyclone Sterile Systems, Logan, Utah) and 0.3% agar (Difco Laboratories, Detroit, Mich.). PBMC's were cultured at 2×10^5/mL. CFU-GM were stimulated with 10 ng/mL recombinant murine GM-CSF (rmGM-CSF), 10 ng/mL rmIL-1α, and 50 ng/mL stem cell factor (SCF). Triplicate cultures from individual animals were incubated at 37° C., 5% CO2, 5% O2 in air for 7 days. Total CFU-GM/mL blood was determined by multiplying CFU frequencies by PBMC/ml blood corrected for white blood cell (WBC) recovery after Lympholyte-M separation.

[2] = system: peripheral blood cells; assay: Peripheral blood differential summary (complete blood counts, manual differentials); type: in vivo; conditions: BALB/c mice
Protocol: Mobilization experiments were performed in BALB/c mice (3 mice group). For mobilization with AMD3100 or GROβ alone, PBSC mobilization was quantified at the peak of mobilization determined for either agent in previous experiments. Thus, PBSC mobilization was quantified at 15 mins following an s.c. injection of 2.5 mg/kg GROβ and at 1 hour following an s.c. injection of 5 mg/kg AMD3100.
In the combination experiment, PBSC mobilization was quantitated at 5, 15, 30, 60 and 150 minutes after a single subcutaneous injection of 2.5 mg/kg GROβ (R & D Systems) in saline and 5 mg/kg AMD3100. The compounds were injected separately and simultaneously at different s.c. sites. Injections were scheduled so that control and mobilized mice were evaluated at the same time in every experiment. Mice were killed by CO2 asphyxiation and blood was obtained by cardiac puncture using syringes coated with EDTA (ethylenediaminetetra acetic acid). PBMC's were obtained by separation of peripheral blood (0.4 mL) on Lympholyte-M (Cedarlane Labs, Hornby, ON, Canada). Complete blood counts (CBC's) were performed on a Hemavet Mascot (CDC Technologies, Oxford, Conn.). Manual differentials were performed on Wright-Giemsa-stained (Hema-Tek 1000, Bayer, Elkhart, Ind.) blood smears or spleen and bone marrow cell cytospin preparations (Shandon, Pittsburgh, Pa.).

Row | Molecule | CFU-GM/ml ([1]; 60 min after s.c. injection (GROβ 2.5 mg/kg, AMD3100 5 mg/kg)) [CFU-GM/ml] | CFU-GM Mobilized Above Control ([1]; 60 min after s.c. injection) | Fold Inc (CFU-GM/ml over PBS control) ([1]; 60 min after s.c. injection) | % LYMPH ([2]; 60 min after s.c. injection) [%] | % MONO ([2]; 60 min after s.c. injection) [%] | % PMN ([2]; 60 min after s.c. injection) [%] | LYMPH ([2]; 60 min after s.c. injection) | MONO ([2]; 60 min after s.c. injection) | PMN ([2]; 60 min after s.c. injection) | WBC ([2]; 60 min after s.c. injection) | CFU-GM/ml ([1]; 15 min after s.c. injection (GROβ 2.5 mg/kg, AMD3100 5 mg/kg)) [CFU-GM/ml] | CFU-GM Mobilized Above Control ([1]; 15 min after s.c. injection) | Fold Inc (CFU-GM/ml over PBS control) ([1]; 15 min after s.c. injection) | % LYMPH ([2]; 15 min after s.c. injection) [%] | % MONO ([2]; 15 min after s.c. injection) [%] | % PMN ([2]; 15 min after s.c. injection) [%] | LYMPH ([2]; 15 min after s.c. injection) | MONO ([2]; 15 min after s.c. injection) | PMN ([2]; 15 min after s.c. injection) | WBC ([2]; 15 min after s.c. injection)
1 | c1cc(CN2CCCNCCNCCCNCC2)ccc1CN1CCCNCCNCCCNCC1 [AMD3100, 1,1′-[1,4-phenylene-bis(methylene)]-bis-1,4,8,11-tetraazacyclotetradecane] | 698.19 | 576.15 | 5.72 | 59.17 | 3.27 | 36.61 | 8.54 | 0.47 | 5.35 | 14.49 |  |  |  |  |  |  |  |  |  | 
2 | GROβ: chemokine GROβ (R & D Systems) in saline; acts via the CXCR2 receptor |  |  |  |  |  |  |  |  |  |  | 2505.54 | 2383.50 | 20.53 | 65.19 | 5.65 | 27.35 | 7.76 | 0.67 | 3.34 | 11.98
